These are literature values, as cited in US20130142849A1 (LUPIN LIMITED, priority 2010, published 2013).

The structures appear in SMILES notation. Like-named read-outs stand apart in the source and are kept apart here.

Take `CCCCc1oc2ccc(NS(C)(=O)=O)cc2c1C(=O)c1ccc(OCCCN(CCCC)CCCC)cc1.Cl` [Dronedarone, N-{2-butyl-3-[4-(3-dibutylaminopropoxy)benzoyl]benzofuran-5-yl}methane sulfonamide, hydrochloride]: the absolute oral bioavailability result was “approx. 15%” (administered with a high fat meal) and 4% (fasting).
